Patent US20140228425A1, “INHIBITOR FOR CORNEAL EPITHELIAL CELL DEATH, INHIBITOR CHARACTERIZED BY COMBINING HYALURONIC ACID AND FLAVIN ADENINE DINUCLEOTIDE” (SANTEN PHARMACEUTICAL CO., LTD., priority 2011, published 2014)
Where a name gives a salt, the structure may show the parent alone.

Assays:
[1] = Patent Document 1; cited from earlier work
[2] = test system: SV40 immortalized human corneal epithelial cells; experiment: Pharmacological Test 4: treatment before exposure to dryness, viability of corneal epithelial cells; assay type: cell-based; conditions: treated 60 minutes before exposure to dryness for 15 minutes; 0.1% HA, 0.05% FAD or 0.1% HA/0.05% FAD in D-MEM/F12; FIG. 3
Procedure: Whether or not the decline of the number of living cells by dryness is inhibited when corneal epithelial cells are treated with the present agent before exposure to dryness was evaluated.
SV40 immortalized human corneal epithelial cells were inoculated in a 96-well plate (1×10^4 cells/well), and cultured in a 10% FBS-containing DMEM/F-12 culture medium for a day. On the next day, the culture medium was replaced by a D-MEM/F12 culture medium containing 0.1% (w/v) sodium hyaluronate, a D-MEM/F12 culture medium containing 0.05% (w/v) flavin adenine dinucleotide disodium salt, a D-MEM/F12 culture medium containing 0.1% (w/v) sodium hyaluronate and 0.05% (w/v) flavin adenine dinucleotide disodium salt, or a D-MEM/F12 culture medium not containing a test substance, and then cells were cultured at 37° C. for 60 minutes (hereinafter, referred to as “0.1% HA group”, “0.05% FAD group”, “0.1% HA/0.05% FAD group” or “base group”, respectively). After culturing, the culture medium of each group was removed, and then cells were exposed to dryness for 15 minutes. After exposure to dryness, the number of living cells was determined by using Cell Titer 96 (registered trade name) AQueous One Solution Cell Proliferation Assay, and the viability was calculated according to the following expression 4. […]

[3] = test system: SV40 immortalized human corneal epithelial cells; experiment: Pharmacological Test 3: treatment after UV-B irradiation (80 mJ/cm^2), viability of corneal epithelial cells; assay type: cell-based; conditions: treated 60 minutes after UV-B irradiation (80 mJ/cm^2, about 1 minute); 0.1% (w/v) sodium hyaluronate, 0.05% (w/v) flavin adenine dinucleotide disodium salt, or both; FIG. 2
Procedure: Whether or not the decline of the number of living cells by ultraviolet irradiation is inhibited when corneal epithelial cells are treated with the present agent after ultraviolet (UV-B) irradiation was evaluated.
SV40 immortalized human corneal epithelial cells were inoculated in a 96-well plate (1×10^4 cells/well), and cultured in a 10% FBS-containing DMEM/F-12 culture medium for a day. On the next day, corneal epithelial cells were irradiated with UV-B (80 mJ/cm^2) for about 1 minute. Then the 10% FBS-containing DMEM/F-12 culture medium was replaced by PBS containing 0.1% (w/v) sodium hyaluronate, PBS containing 0.05% (w/v) flavin adenine dinucleotide disodium salt, PBS containing 0.1% (w/v) sodium hyaluronate and 0.05% (w/v) flavin adenine dinucleotide disodium salt, or PBS not containing a test substance, and then cultured at 37° C. for 60 minutes (hereinafter, referred to as “0.1% HA group”, “0.05% FAD group”, “0.1% HA/0.05% FAD group” or “base group”, respectively). Then, after replacing the culture medium of each group by a 10% FBS-containing DMEM/F-12 culture medium, the cells were cultured at 37° C. for 24 hours, and then the number of living cells was determined by using Cell Titer 96 (registered trade name) AQueous One Solution Cell Proliferation Assay, and the viability was calculated according to the following expression 3. […]

[4] = test system: SV40 immortalized human corneal epithelial cells (HCE-T); experiment: Pharmacological Test 2: treatment before UV-B irradiation (120 mJ/cm^2), cell death inhibition ratio; assay type: cell-based; conditions: for Cell death inhibition ratio: average N=3
Procedure: A test similar to Pharmacological test 1 was conducted with the irradiation condition of UV-B varied.
After conducting operations similar to those in Pharmacological test 1, the 10% FBS-containing DMEM/F-12 culture medium was replaced by PBS containing 0.05% (w/v) flavin adenine dinucleotide disodium salt, PBS containing 0.05% (w/v) sodium hyaluronate, PBS containing 0.05% (w/v) sodium hyaluronate and 0.05% (w/v) flavin adenine dinucleotide disodium salt, PBS containing 0.3% (w/v) sodium hyaluronate, PBS containing 0.3% (w/v) sodium hyaluronate and 0.05% (w/v) flavin adenine dinucleotide disodium salt, or PBS not containing a test substance (hereinafter, referred to as “0.05% FAD group”, “0.05% HA group”, “0.05% HA/0.05% FAD group”, “0.3% HA group”, “0.3% HA/0.05% FAD group” or “base group”, respectively). Then, corneal epithelial cells were irradiated with UV-B (120 mJ/cm^2) for about 2 minutes, and again operations similar to those in Pharmacological test 1 were conducted. Then, according to the expression 1, the viability was calculated, and further, according to the following expression 2, the cell death inhibition ratio of each group was calculated.
Cell death inhibition ratio (%)=Viability of each group−Viability of base group [Expression 2]

corneal epithelial cells [5] = conditions: Non-Patent Document 3; cited from earlier work
corneal epithelial cells [6] = conditions: Non-Patent Document 1; cited from earlier work
[7] = single substance 0.05% (w/v) in PBS before UV-B (120 mJ/cm^2, about 2 minutes)

Compound | action of inhibiting corneal epithelial cell death (in words) [2] | inhibition of corneal epithelial cell death (in words) [3] | Cell death inhibition ratio [4, 7] [%] | other results
Cc1cc2nc3c(=O)[nH]c(=O)nc-3n(C[C@H](O)[C@H](O)[C@H](O)COP(=O)(O)OP(=O)(O)OC[C@H]3O[C@@H](n4cnc5c(N)ncnc54)C(O)C3O)c2cc1C (stereo partly drawn) [FAD or the like, flavin adenine dinucleotide (FAD) or a salt thereof] |  |  |  | lacrimal secretagogue action [1]: has a lacrimal secretagogue action
Cc1cc2nc3c(=O)[nH]c(=O)nc-3n(C[C@H](O)[C@H](O)[C@H](O)COP(=O)([O-])OP(=O)([O-])OC[C@H]3O[C@@H](n4cnc5c(N)ncnc54)[C@H](O)[C@@H]3O)c2cc1C.[Na+].[Na+] [FAD, flavin adenine dinucleotide disodium salt] | the action was not observed | little observed | 48.78 | 
hyaluronic acid or a salt thereof [hyaluronic acid or the like] |  |  |  | cell death of corneal epithelial cells induced by dryness (corneal epithelial cells [5]): does not inhibit; Caspase-3/7 activation by UV-B irradiation (corneal epithelial cells [6]): inhibits; increase in production of active oxygen by corneal epithelial cells by UV-B irradiation (corneal epithelial cells [6]): inhibits
sodium hyaluronate [HA] | an action of inhibiting corneal epithelial cell death was observed | little observed | −0.17 | Cell death inhibition ratio ([4]; single substance 0.3% (w/v) in PBS before UV-B (120 mJ/cm^2, about 2 minutes)): 4.17%; inhibition of corneal epithelial cell death by UV-B irradiation (in words) ([4]; treatment before UV-B irradiation (120 mJ/cm^2, about 2 minutes)): little inhibit
